Measurements: US11446299B2, “Carbazole EHop-016 derivatives as anticancer and anti-migratory agents” (UNIVERSITY OF PUERTO RICO, priority 2017, dated 2022)

Tested on: MDA-MB-231 breast cancer cells
Assay: Wound healing assay (scratch method), cell migration
Assay type: cell-based, human
Conditions: Homo sapiens; percent relative migration at 10 μM after 24 h, relative to control, MDA-MB-231
Method: The experimental data of anti-migratory activities for compounds 3a-d and 4a-f were obtained using MDA-MB-231 breast cancer cells. For the migration assay, a wound-healing assay (scratch-wound assay) was utilized in the presence of vehicle (0.02% DMSO) or compounds at […].
Prior to assays, cells were grown until 80-90% confluence was observed. A 75 cm2 flask was used for 2.6×10^5 cells/mL in 10 mL and for a 25 cm2 flask 1.44×10^5 cells/mL in 5 mL. The cells were washed with PBS to remove all traces of FBS. 2 mL was added for a 25 cm2 flasks or 4 mL for a 75 cm2 flasks trypsin, and incubated 5-10 min at 37° C. At the end of the incubation time, cells were re-suspended and counted with hemocytometer using 1:2 dilutions with Trypan blue. Subsequently, cell viability was calculated. In a 12 multiwell plate, the plastic pattern was used to draw a fine space with a fine marker on the bottom of the plate. Cells were seeded at 1.5-2.2×10^5 cells/mL in 1 mL and incubated for 24 h. Cells were then rinsed with PBS and incubated in starving media (0.5% FBS) overnight. All controls and drugs were tested in triplicate. The negative control for each drug was prepared according to the drug's DMSO concentration.
Drugs were diluted and the final concentration at each well […]. The wound was made using a sterile pipette tip of […]. Cells were then rinsed very gently with media without FBS and media with negative controls was added. After a 24 h incubation, the gap distance was evaluated using the software Lumera Infinity Analyze 6.4.0. Pictures were taken at 0, 8, 12 and 24 h using a 10× objective. The percentage of migration was calculated using the following formula: 100−[(X0/X0)]*100 for time 0 h measurements 100−[(X24/X0)]*100 for time 24 h measurements
The experimental data of anti-migratory activities for compounds 3a-d and 4a-f were obtained using MDA-MB-231 breast cancer cells, and results are summarized in Table 1. For the migration assay, we used a wound-healing assay (scratch-wound assay)^22 in the presence of vehicle (0.02% DMSO) or compounds at 10 μM (FIG. 6). […] However, compounds 3a, 3c, and 4a-f inhibited migration in the range of 1-9%.
An additional example of a compounds with modification in building block C was synthesized via a different procedure as represented in Scheme 2B (see FIG. 11B). The compounds that were synthesized were tested for their biological activity by determination of their cytotoxicity in MDA-MB-231 breast cancer cell lines as shown in Table 5. The cytotoxicity's are expressed as IC50, which indicates the concentration at which 50% of the cell growth is inhibited. Furthermore, the inhibition of cell migration was tested at a concentration of 0.2×IC50, or, when the IC50 was >50 μM at a concentration of 10 μM. For comparison, Table 5 also includes the Lipinski and drug-likeness parameters as calculated via the MolSoft platform.
Migration assays were performed via the Scratch Method as described previously.

`CCn1c2ccccc2c2cc(C(=O)Nc3cccnc3N3CCOCC3)ccc21` [Compound 11b, 9-Ethyl-9H-carbazole-3-carboxylic Acid (2-morpholin-4-yl-pyridin-3-yl)-amide] showed an activity at 10 µM of 66 ± 7.43%.
